One experiment concerns HMEC-1. The experiment can be described thus: Anti-proliferative activity against HMEC1 cells after 3 days by coulter counting method. Type of experiment: cell-based. The settings on record: Homo sapiens, HMEC-1, 72 h.
The next experiment concerns HeLa. The experiment in a line: Anti-proliferative activity against human HeLa cells after 3 days by coulter counting method. Type of experiment: functional, cell-based. The note with it: 72 h.
For another experiment, the system named is CCRF-CEM. The experiment can be described thus: Anti-proliferative activity against human CEM cells after 4 days by coulter counting method. It counts as functional, cell-based. The note with it: 96 h.
Experiment [1] in a line: Selectivity ratio of IC50 for HMEC1 cells to IC50 for human CEM cells.

As usually defined, the IC50 is the concentration needed to halve the response being measured. A higher IC50 goes with lower potency. For the compound `C[C@@H]1CC[C@H]2[C@@H](C)C(=O)N[C@@H]3O[C@@]4(C)CC[C@@H]1[C@]32OO4`, the IC50 is greater than 250 µM with HMEC-1, 147 µM in the experiment on HeLa and 150 µM with CCRF-CEM.

Consider `C[C@@H]1CC[C@H]2[C@@H](C)C(OCCn3nnc4c3CCc3ccccc3-4)O[C@@H]3O[C@@]4(C)CC[C@@H]1[C@]32OO4` (stereo partly drawn), for which the IC50 is greater than 250 µM in the experiment on HMEC-1, greater than 250 µM in the experiment on HeLa and 157 µM with CCRF-CEM.

Turning to `C[C@H]1[C@H](OC(=O)C2CCc3c(nnn3CCc3c[nH]c4ccccc34)C2)O[C@@H]2O[C@@]3(C)CC[C@H]4[C@H](C)CC[C@@H]1[C@@]24OO3` (stereo partly drawn), the IC50 in the experiment with HMEC-1 came to 40 µM; with HeLa it was 12 µM; with CCRF-CEM, 3.9 µM.

In the case of `COc1cc(-n2cc(CN3C(=O)[C@H](C)[C@@H]4CC[C@@H](C)[C@@H]5CC[C@@]6(C)OO[C@]54[C@H]3O6)nn2)cc(OC)c1OC`, the IC50 came to 155 µM with HMEC-1, 19 µM in the experiment on HeLa and 17 µM with CCRF-CEM. For the same compound, the “Ratio IC50” value in experiment [1] is reported as 8 - 50.

As to `C[C@@H]1CC[C@H]2[C@@H](C)C(OCCn3nnc4c3C[C@@H]3CC[C@@H]5[C@H](CC[C@]6(C)[C@@H](O)CC[C@@H]56)[C@@]3(C)C4)O[C@@H]3O[C@@]4(C)CC[C@@H]1[C@]32OO4` (stereo partly drawn), the IC50 in the experiment with HMEC-1 worked out at 28 µM; in the experiment on HeLa, 16 µM; in the experiment on CCRF-CEM it was 8.9 µM.

For the compound `C[C@@H]1CC[C@H]2[C@@H](C)C(=O)N(Cc3cn(C4OC(COCc5ccccc5)[C@H](OCc5ccccc5)[C@@H]4OCc4ccccc4)nn3)[C@@H]3O[C@@]4(C)CC[C@@H]1[C@@]23OO4` (stereo partly drawn), the 50% inhibitory concentration (IC50) was greater than 250 µM in the experiment on HMEC-1, no less than 250 µM in the experiment on HeLa and greater than 250 µM with CCRF-CEM.

Regarding `C[C@@H]1CC[C@H]2[C@@H](C)C(OCCn3nncc3-c3ccc(Br)c(Br)c3)O[C@@H]3O[C@@]4(C)CC[C@@H]1[C@]32OO4` (stereo partly drawn), the IC50 in the experiment on HMEC-1 turned out to be 26 µM; with HeLa it was 11 µM; with CCRF-CEM it was 10 µM.

For `C[C@@H]1CC[C@H]2[C@@H](C)C(=O)N(Cc3cn(C4CC(OC(=O)c5ccc(Cl)cc5)C(COC(=O)c5ccc(Cl)cc5)O4)nn3)[C@@H]3O[C@@]4(C)CC[C@@H]1[C@@]23OO4` (stereo partly drawn), the half-maximal inhibitory concentration (IC50) in the experiment with HMEC-1 was 24 µM; in the experiment with HeLa it was 6.1 µM; in the experiment on CCRF-CEM, 2.6 µM.

On to `C[C@H]1[C@H](OC(=O)C2CCc3c(nnn3Cc3ccc4c(c3)OCO4)C2)O[C@@H]2O[C@@]3(C)CC[C@H]4[C@H](C)CC[C@@H]1[C@@]24OO3` (stereo partly drawn), for which the values for the half-maximal inhibitory concentration (IC50) in the experiment on HMEC-1, in the experiment on HeLa and with CCRF-CEM were 35 µM, 11 µM and 2.8 µM, respectively.

With `CC(C)c1cccc(-n2cc(CN3C(=O)[C@H](C)[C@@H]4CC[C@@H](C)[C@@H]5CC[C@@]6(C)OO[C@]54[C@H]3O6)nn2)c1`, the half-maximal inhibitory concentration (IC50) stood at 30 µM with HMEC-1, 1.2 µM in the experiment with HeLa and 0.92 µM in the experiment on CCRF-CEM. For the same compound, the “Ratio IC50” value in experiment [1] turned out to be 30.

For the compound `C[C@@H]1CC[C@H]2[C@@H](C)C(OCCn3nnc4c3CCN(Cc3ccccc3)C4)O[C@@H]3O[C@@]4(C)CC[C@@H]1[C@]32OO4` (stereo partly drawn), the concentration for half-maximal inhibition (IC50) in the experiment with HMEC-1 came to 30 µM; with HeLa, 19 µM; with CCRF-CEM it was 20 µM.

For the compound `COc1cc2c(cc1OC)-c1nnn(CCOC3O[C@@H]4O[C@@]5(C)CC[C@H]6[C@H](C)CC[C@@H]([C@H]3C)[C@@]46OO5)c1CC2` (stereo partly drawn), the IC50 was 150 µM with HMEC-1, 36 µM with HeLa and 30 µM in the experiment on CCRF-CEM.

Take `C=C(C)[C@@H]1CC[C@]2(C(=O)O)CC[C@]3(C)[C@H](CC[C@@H]4[C@@]5(C)Cc6nnn(CCOC7O[C@@H]8O[C@@]9(C)CC[C@H]%10[C@H](C)CC[C@@H]([C@H]7C)[C@@]8%10OO9)c6C(C)(C)[C@@H]5CC[C@]43C)[C@@H]12` (stereo partly drawn): the IC50 with HMEC-1 was 121 µM; in the experiment with HeLa, 24 µM; in the experiment on CCRF-CEM, 5 µM.

As to `C[C@@H]1CC[C@H]2[C@@H](C)C(=O)N(Cc3cn(-c4ccccc4)nn3)[C@@H]3O[C@@]4(C)CC[C@@H]1[C@@]23OO4`, the IC50 in the experiment with HMEC-1 is greater than 250 µM; in the experiment on HeLa, 36 µM; in the experiment on CCRF-CEM, 5.1 µM. Moreover, the “Ratio IC50” value in experiment [1] is 8 - 50.

Turning to `C[C@@H]1CC[C@H]2[C@@H](C)C(OCCn3nnc4c3CCc3ccc([N+](=O)[O-])cc3-4)O[C@@H]3O[C@@]4(C)CC[C@@H]1[C@]32OO4` (stereo partly drawn), the IC50 in the experiment with HMEC-1 is 160 µM; in the experiment on HeLa it was 175 µM; in the experiment on CCRF-CEM, 95 µM.

Take `C[C@@H]1CC[C@H]2[C@@H](C)C(OCCn3nncc3-c3cccc4ccccc34)O[C@@H]3O[C@@]4(C)CC[C@@H]1[C@]32OO4` (stereo partly drawn): the IC50 in the experiment with HMEC-1 was determined as 24 µM; in the experiment with HeLa, 12 µM; with CCRF-CEM it was 11 µM.

For the compound `COC(=O)Cn1cc(CN2C(=O)[C@H](C)[C@@H]3CC[C@@H](C)[C@@H]4CC[C@@]5(C)OO[C@]43[C@H]2O5)nn1`, the concentration for half-maximal inhibition (IC50) in the experiment on HMEC-1 was greater than 250 µM; with HeLa, greater than 250 µM; in the experiment with CCRF-CEM, no less than 250 µM.

Take `C#CCN1C(=O)[C@H](C)[C@@H]2CC[C@@H](C)[C@@H]3CC[C@@]4(C)OO[C@]32[C@H]1O4`: the IC50 in the experiment on HMEC-1 was found to be 241 µM; in the experiment on HeLa it was 98 µM; in the experiment on CCRF-CEM, 104 µM.

As to `C[C@@H]1CC[C@H]2[C@@H](C)C(OCCn3nnc4c3-c3ccccc3CC4)O[C@@H]3O[C@@]4(C)CC[C@@H]1[C@]32OO4` (stereo partly drawn), the IC50 in the experiment on HMEC-1 is 35 µM; in the experiment on HeLa, 20 µM; in the experiment on CCRF-CEM it was 21 µM.

For the compound `C[C@@H]1CC[C@H]2[C@@H](C)C(=O)N(Cc3cn(-c4ccc(C#N)cc4)nn3)[C@@H]3O[C@@]4(C)CC[C@@H]1[C@@]23OO4`, the half-maximal inhibitory concentration (IC50) with HMEC-1 was 26 µM; in the experiment on HeLa, 36 µM; in the experiment on CCRF-CEM, 18 µM.

On to `C[C@@H]1CC[C@H]2[C@@H](C)C(OCCn3nncc3-c3ccccc3)O[C@@H]3O[C@@]4(C)CC[C@@H]1[C@]32OO4` (stereo partly drawn), for which the IC50 was 62 µM in the experiment with HMEC-1, 37 µM with HeLa and 25 µM with CCRF-CEM.

`COc1cc(Cn2nnc3c2CCC(C(=O)O[C@@H]2O[C@@H]4O[C@@]5(C)CC[C@H]6[C@H](C)CC[C@@H]([C@H]2C)[C@@]46OO5)C3)cc(OC)c1OC` (stereo partly drawn): the IC50 in the experiment on HMEC-1 stood at 40 µM; with HeLa, 21 µM; in the experiment on CCRF-CEM, 4.3 µM.

As for `COc1ccc2c(c1)-c1nnn(CCOC3O[C@@H]4O[C@@]5(C)CC[C@H]6[C@H](C)CC[C@@H]([C@H]3C)[C@@]46OO5)c1CC2` (stereo partly drawn), the IC50 with HMEC-1 is 105 µM; in the experiment with HeLa it was 143 µM; in the experiment with CCRF-CEM it was 128 µM.

With `COc1cc(-c2cnnn2CCOC2O[C@@H]3O[C@@]4(C)CC[C@H]5[C@H](C)CC[C@@H]([C@H]2C)[C@@]35OO4)ccc1O` (stereo partly drawn), the IC50 is 62 µM in the experiment with HMEC-1, 23 µM in the experiment on HeLa and 39 µM in the experiment on CCRF-CEM.

With `Cc1ccc(Cn2nnc3c2CCC(C(=O)O[C@@H]2O[C@@H]4O[C@@]5(C)CC[C@H]6[C@H](C)CC[C@@H]([C@H]2C)[C@@]46OO5)C3)cc1` (stereo partly drawn), the IC50 stood at 34 µM in the experiment on HMEC-1, 11 µM with HeLa and 2.7 µM in the experiment with CCRF-CEM.

The values above are taken from ChEMBL document CHEMBL4033717, “Synthesis and anticancer activity of novel aza-artemisinin derivatives” (Bioorg Med Chem, 2017).
